Reference: patent US20260138970A1, “MODULATORS OF THE CALCIUM SIGNALING CASCADE” (FONDAZIONE TELETHON ETS, priority 2022, published 2026)

Assays:
[1] = tested on: ENaC; assay: Short-circuit current recordings on human cultured bronchial epithelia, ENaC function; type: cell-based; conditions: apical addition; ARN7149 10 μM, ARN11391 20 μM, ARN4550 20 μM, UTP 10 nM; FIG. 9
Excerpt: In a further experimental setting, snapwell supports (cc3801, Corning) carrying differentiated bronchial epithelia generated in vitro were mounted in a vertical chamber resembling an Ussing system with internal fluid circulation (EM-CSYS-8, Physiologic Instruments, San Diego, CA, USA). The apical and basolateral hemichambers were filled with a solution containing (in mM): 126 NaCl, 0.38 KH2PO4, 2.13 K2HPO4, 1 MgSO4, 1 CaCl2), 24 NaHCO3, and 10 glucose. Both sides were continuously bubbled with a gas mixture containing 5% CO2 and 95% air. The temperature of the solution was kept at 37° C. throughout the experiment.
During recordings, the following molecules (in addition to ARN7149, ARN11391, and ARN4550) were added in the apical solution: elastase (SE2093002, Serva); UTP (U6625, Merck); amiloride (A7410, Merck). Transepithelial voltage was short-circuited with a voltage-clamp (VCC MC8, Physiologic Instruments, San Diego, CA, USA) connected to the apical and basolateral chambers via Ag—AgCl electrodes and agar bridges (2% agar in 1 M KCl). The offset between voltage electrodes and the fluid resistance were cancelled before experiments. The resulting short-circuited current from each channel was recorded on a personal computer with the Acquire & Analize 2.3 software (Physiologic Instruments, San Diego, CA, USA).

[2] = tested on: protease-activated and bradykinin receptors; conditions: protease-activated and bradykinin receptor agonists; cited from earlier work
[3] = target: T1, T267M ITPR1 (Homo sapiens, UniProt Q14643, T267M); assay: IP3 uncaging assay, HEK293 cells expressing T267M-ITPR1; type: cell-based; conditions: compound 10 μM; tetracycline-treated; FIG. 6D
T1 construct: expressed in transfected cells
T1 sequence (Q14643 whole entry T267M): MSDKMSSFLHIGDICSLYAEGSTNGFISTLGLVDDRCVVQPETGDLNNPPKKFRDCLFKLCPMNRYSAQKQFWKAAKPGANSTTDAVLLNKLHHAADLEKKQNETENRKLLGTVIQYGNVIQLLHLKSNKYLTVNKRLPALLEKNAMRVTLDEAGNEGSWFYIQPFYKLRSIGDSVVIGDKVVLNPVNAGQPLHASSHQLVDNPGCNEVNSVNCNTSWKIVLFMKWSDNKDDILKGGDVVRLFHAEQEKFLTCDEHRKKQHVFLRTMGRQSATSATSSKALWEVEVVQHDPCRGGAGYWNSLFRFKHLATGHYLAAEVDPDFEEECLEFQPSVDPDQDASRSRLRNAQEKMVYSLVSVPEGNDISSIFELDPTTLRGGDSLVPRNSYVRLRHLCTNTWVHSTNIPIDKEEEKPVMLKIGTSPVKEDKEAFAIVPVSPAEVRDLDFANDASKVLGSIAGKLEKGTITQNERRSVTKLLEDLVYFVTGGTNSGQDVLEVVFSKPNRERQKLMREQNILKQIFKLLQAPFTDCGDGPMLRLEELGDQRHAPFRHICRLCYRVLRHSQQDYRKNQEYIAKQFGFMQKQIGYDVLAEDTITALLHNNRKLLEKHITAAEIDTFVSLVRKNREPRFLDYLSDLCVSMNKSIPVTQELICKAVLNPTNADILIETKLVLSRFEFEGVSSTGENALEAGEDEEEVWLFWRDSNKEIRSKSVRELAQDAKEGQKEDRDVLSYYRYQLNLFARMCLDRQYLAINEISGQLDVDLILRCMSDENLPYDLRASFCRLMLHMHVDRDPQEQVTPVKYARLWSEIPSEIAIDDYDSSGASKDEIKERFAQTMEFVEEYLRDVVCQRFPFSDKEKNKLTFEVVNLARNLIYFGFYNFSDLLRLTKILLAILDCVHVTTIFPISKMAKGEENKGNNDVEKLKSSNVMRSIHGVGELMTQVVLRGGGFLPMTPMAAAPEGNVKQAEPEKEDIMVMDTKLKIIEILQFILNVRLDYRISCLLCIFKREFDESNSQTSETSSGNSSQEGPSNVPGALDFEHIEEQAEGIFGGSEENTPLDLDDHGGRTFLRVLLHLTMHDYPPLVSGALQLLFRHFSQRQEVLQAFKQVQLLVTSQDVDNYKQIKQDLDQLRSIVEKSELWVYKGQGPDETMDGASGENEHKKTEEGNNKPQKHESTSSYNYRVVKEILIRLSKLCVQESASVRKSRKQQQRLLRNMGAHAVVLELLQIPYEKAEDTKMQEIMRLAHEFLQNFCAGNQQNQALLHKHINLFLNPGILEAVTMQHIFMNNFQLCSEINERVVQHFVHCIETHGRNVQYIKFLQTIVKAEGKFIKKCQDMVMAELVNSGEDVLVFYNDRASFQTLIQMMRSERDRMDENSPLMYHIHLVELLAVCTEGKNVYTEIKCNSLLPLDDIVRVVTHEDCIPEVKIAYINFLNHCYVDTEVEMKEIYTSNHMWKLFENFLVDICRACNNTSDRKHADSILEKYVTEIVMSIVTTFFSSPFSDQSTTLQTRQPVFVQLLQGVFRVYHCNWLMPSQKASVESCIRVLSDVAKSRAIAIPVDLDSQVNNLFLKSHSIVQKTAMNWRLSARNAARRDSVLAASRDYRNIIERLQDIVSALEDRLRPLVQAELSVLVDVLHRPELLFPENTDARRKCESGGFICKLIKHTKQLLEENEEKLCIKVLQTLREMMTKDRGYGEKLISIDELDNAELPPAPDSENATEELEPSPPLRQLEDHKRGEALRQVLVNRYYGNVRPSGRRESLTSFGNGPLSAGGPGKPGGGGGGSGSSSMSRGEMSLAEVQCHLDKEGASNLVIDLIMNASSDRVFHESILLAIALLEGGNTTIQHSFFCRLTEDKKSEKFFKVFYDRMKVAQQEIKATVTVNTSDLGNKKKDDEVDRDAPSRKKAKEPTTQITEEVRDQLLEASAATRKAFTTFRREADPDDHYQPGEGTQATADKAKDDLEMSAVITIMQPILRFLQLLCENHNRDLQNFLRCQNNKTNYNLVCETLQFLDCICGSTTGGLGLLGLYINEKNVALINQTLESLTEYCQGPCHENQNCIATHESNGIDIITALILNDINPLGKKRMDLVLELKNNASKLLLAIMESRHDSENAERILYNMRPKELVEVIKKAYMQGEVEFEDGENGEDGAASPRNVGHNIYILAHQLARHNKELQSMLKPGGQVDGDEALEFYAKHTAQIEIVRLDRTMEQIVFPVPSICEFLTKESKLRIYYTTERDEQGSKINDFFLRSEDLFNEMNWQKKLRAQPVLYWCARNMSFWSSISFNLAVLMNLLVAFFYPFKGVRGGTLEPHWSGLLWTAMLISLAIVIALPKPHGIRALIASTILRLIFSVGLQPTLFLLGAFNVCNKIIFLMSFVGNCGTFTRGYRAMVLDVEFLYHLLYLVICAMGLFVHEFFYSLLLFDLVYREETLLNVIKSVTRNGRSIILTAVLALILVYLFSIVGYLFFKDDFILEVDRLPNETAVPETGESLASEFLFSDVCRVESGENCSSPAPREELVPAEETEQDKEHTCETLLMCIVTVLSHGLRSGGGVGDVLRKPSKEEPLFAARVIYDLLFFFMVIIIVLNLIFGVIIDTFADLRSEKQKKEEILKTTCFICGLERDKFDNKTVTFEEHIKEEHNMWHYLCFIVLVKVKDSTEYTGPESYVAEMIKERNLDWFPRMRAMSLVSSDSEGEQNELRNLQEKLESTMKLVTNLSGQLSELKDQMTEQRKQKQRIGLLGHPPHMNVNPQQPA
Description: HEK293 cells stably transfected with tetracycline-inducible expression of wild type or mutant (R269W or T267M) ITPR1, kindly provided by Prof. S. R. Wayne Chen (University of Calgary; ref. 14), were cultured in a mixture of Dulbecco's Modified Eagle Medium (DMEM, high glucose version) and Ham's F12 (1:1) and supplemented with 10% fetal bovine serum, 2 mM L-glutamine, 100 U/ml penicillin and 100 μg/ml streptomycin. Cells were selected with 0.5 mg/ml hygromycin B and induced with 1 μg/ml tetracycline.
(§1) FRT and HEK293 cells were cultured in μ-Plate96 microplates (Ibidi) at subconfluent condition. Cells were washed 2 times with PBS (150 μl/wash) and then loaded for 45 min at 37° C. with 1 μM ci-IP3/PM (Tocris; catalog number: 6210/10U) and 5 μM Fluo-4/AM (Thermo Fisher Scientific) in PBS containing 10 mM glucose, 0.5 mM sulfinpyrazone and 1% fetal bovine serum. After 45 min, cells were further incubated for 1 h at 37° C. with a fresh PBS solution containing Fluo-4/AM, glucose, sulfinpyrazone, serum, but no ci-IP3/PM. […] Analysis was performed with MetaFluor software, by quantifying Fluo-4 fluorescence in manually selected single cell region of interest (ROI). […] After background subtraction, fluorescence traces were normalized for the initial value.

[4] = target: ITPR1 (Homo sapiens, UniProt Q14643); assay: ci-IP3/PM uncaging assay in HEK293 cells with selective expression of ITPR1 (HEKR1); type: cell-based; parameters: host or cells: HEKR1 (HEK293); conditions: compounds 10 μM; FIG. 4B
Description: HEK293 cells totally devoid of ITPR expression (HEK3XKO) or with selective expression of ITPR1 (HEKR1), ITPR2 (HEKR2), or ITPR3 (HEKR3), obtained by selective gene ablation, were purchased from Kerafast (catalog number: EURO30, EURO31, EURO32, EURO33) and cultured in a mixture of Dulbecco's Modified Eagle Medium (DMEM, high glucose version) and Ham's F12 (1:1) and supplemented with 10% fetal bovine serum, 2 mM L-glutamine, 100 U/ml penicillin and 100 μg/ml streptomycin.
as §1

[5] = tested on: protease-activated receptors; assay: Fluo-4 Ca2+ assay, SLIGR-NH2 stimulus, HEKR2 cells; type: cell-based; conditions: SLIGR-NH2 4 μM; compounds 10 μM; FIG. 5C bottom
Description: Experiments were performed using the microplate reader described for the HS-YFP assay. FRT and HEK293 cells were cultured until confluence in 96-well microplates (3603, Corning). Cells were washed 2 times with PBS (150 μl/wash) and then loaded for 1 h at 37° C. with 5 μM Fluo-4/AM (Thermo Fisher Scientific; catalog number: F23917) in PBS containing 10 mM glucose, 0.5 mM sulfinpyrazone, and 1% fetal bovine serum. After loading, cells were washed 2 times with PBS-glucose-sulfinpyrazone (150 μl/wash) and incubated for 20 min at 37° C. with 60 μl of PBS plus 10 mM glucose and 0.5 mM sulfinpyrazone containing compounds of interest at 10 μM final concentration or vehicle. Each well was assayed individually. Fluo-4 fluorescence (500 nm excitation, 535 nm emission) was detected every 200 ms for 16-40 s. Two seconds after the start of fluorescence recording, the reader automatically injected 165 μl of a modified PBS containing 136 mM KCl instead of NaCl. This solution also contained 10 mM glucose, 0.5 mM sulfinpyrazone, and UTP or SLIGR-NH2 (CAS #171436-38-7) at a final concentration that depended on the specific cell type. […] The Fluo-4 fluorescence increase was quantified using a procedure compiled in Microsoft Excel after background subtraction and normalization for the initial value measured before UTP addition.

| SMILES | ENaC current decay (ENaC inhibition), short-circuit current [1] | effectiveness by agonist inducing Ca2+ mobilization (UTP vs other GPCR agonists) [2] | Ca2+ mobilization elicited by IP3 uncaging, T267M-ITPR1 [3] | activity on Ca2+ mobilization by IP3 uncaging, cells with selective expression of ITPR1 [4] | potentiation of SLIGR-NH2 stimulus (Ca2+ mobilization), HEKR2 cells [5] |
| --- | --- | --- | --- | --- | --- |
| CCc1cc(-c2cc(NCCCOc3ccccc3C)nc(N)n2)n(C)n1 [ARN7149, 6-(3-Ethyl-1-methyl-1H-pyrazol-5-yl)-N^4-(3-(o-tolyloxy)propyl)pyrimidine-2,4-diamine] | caused ENaC current decay | only effective when Ca^2+ mobilization is induced by UTP | – | – | – |
| CCn1nc2c(c1C(=O)Nc1ccccc1OCC1CCCCO1)CCCC2 (stereo not drawn) [ARN11391, 2-Ethyl-N-[2-(tetrahydropyran-2-ylmethoxy)phenyl]-4,5,6,7-tetrahydroindazole-3-carboxamide] | – | – | significantly amplified | uniquely effective | – |
| OCc1ccccc1CN(Cc1ccnc(N2CCCC2)n1)c1ccc(F)cc1 [ARN4550, [2-[[4-Fluoro-N-[(2-pyrrolidin-1-ylpyrimidin-4-yl)methyl]anilino]methyl]phenyl]methanol] | caused ENaC current decay | – | – | – | only compound that potentiated |
